Consider 82 molecules from ChEMBL document CHEMBL3988442, “University of Dundee, Small-Polar-MMV Screening Library” (2021).

The nature of assay [1]: microbe, parasite or virus in culture. The settings on record: Mycobacterium tuberculosis, 96 h, read-out: pIC50 (converted).
Assay [2] can be described thus: microbe, parasite or virus in culture. To be noted: Mycobacterium tuberculosis, 72 h, read-out: pIC50 (converted).

SMILES strings stand for the structures.

Regarding `O=C(CCN1CCCC1)N1CCc2ccccc21`, the figures for the IC50 in assay [1] and in assay [2] were greater than 501 µM and 391 µM, respectively.
Taken in the same sequence, the figures for `Cc1cnn(CCNCc2cccc3c2OCO3)c1` were greater than 501 µM and 258 µM.
Taken in the same sequence, the figures for `CC(N)Cc1nc(-c2ccccc2)no1` (centres undefined) were 115 µM and 173 µM.
`CCC(N)c1ccccc1OC` (centres undefined): the IC50 is greater than 501 µM in assay [1] and 267 µM in assay [2].
With `OCc1cnc2c(F)cccc2c1`, the IC50 in assay [1] and in assay [2] was greater than 501 µM throughout.
With `COc1cccc(CNc2ccccn2)c1O`, the IC50 in assay [1] and in assay [2] was greater than 501 µM each time.
As to `Cc1ccc(C(C)NC(=O)Nc2nccn(C)c2=O)o1` (centres undefined), the IC50 in assay [1] and in assay [2] was greater than 501 µM each time.
Take `Cc1cc(OCC(=O)NCc2ccccc2F)no1`: the figures for the IC50 in assay [1] and in assay [2] were 118 µM and 73.3 µM, respectively.
Turning to `NS(=O)(=O)NCC1CCN(c2cccc(Br)c2)C1` (centres undefined), the values for the IC50 in assay [1] and in assay [2] were 230 µM and 247 µM, respectively.
Take `CN1CN(Cc2ccc(Cl)o2)CC1=O`: the IC50 in assay [1] and in assay [2] was greater than 501 µM each time.
As for `COc1cc(C(=O)NC(C)CC#N)ccc1C` (centres undefined), the figures for the IC50 in assay [1] and in assay [2] were 184 µM and 185 µM, respectively.
For `Cn1cc(CNC(=O)C2CSc3ccccc3O2)cn1` (centres undefined), the IC50 in assay [1] was greater than 501 µM; in assay [2] it was 218 µM.
As to `C[C@H](c1ccc(Cl)cc1)n1c(CCN)n[nH]c1=O`, the IC50 in assay [1] was greater than 501 µM; in assay [2] it was 38.3 µM.
As for `CN(C)c1nc(N)nc(CN2CCCC(c3ccccc3)CC2)n1` (centres undefined), the IC50 in assay [1] and in assay [2] was greater than 50.1 µM each time.
Turning to `CNS(=O)(=O)CC1CCCN1c1ncc(Br)cn1` (centres undefined), the IC50 is greater than 501 µM in assay [1] and 289 µM in assay [2].
Taken in the same sequence, the figures for `Cc1cccc(N2CCCC(N)C2)n1` (centres undefined) were 150 µM and 119 µM.
As for `CN(Cc1ccc(Br)cc1)C(=O)CSc1nc(N)n[nH]1`, the values for the IC50 in assay [1] and in assay [2] were greater than 501 µM and 152 µM, respectively.
In the case of `CC(C)CC(C)Oc1cc(CN)ccn1` (centres undefined), the IC50 in assay [1] and in assay [2] was greater than 501 µM throughout.
`CCCc1nc(N2CCCCCC2)c2c(n1)c(C)nn2CC`: the IC50 in assay [1] is 43.2 µM; in assay [2], 23.6 µM.
As for `CN(Cc1ccc(N)nc1)c1ccc(C#N)cn1`, the IC50 in assay [1] and in assay [2] was greater than 501 µM throughout.
In the case of `OCCOCCNCC(O)COCc1ccccc1Cl` (centres undefined), the IC50 in assay [1] and in assay [2] was greater than 501 µM each time.
`COC(=O)CN(C)Cc1cc(Br)cs1`: the IC50 in assay [1] and in assay [2] was greater than 50.1 µM each time.
For `CN(CCc1ccc(Br)cc1)C(=O)CCCN`, the IC50 in assay [1] was greater than 501 µM; in assay [2], 179 µM.
With `Cc1csc(CCN)n1`, the IC50 in assay [1] and in assay [2] was greater than 501 µM in each case.
Regarding `COCCN(C)S(=O)(=O)c1cc(F)c(C)cc1F`, the IC50 in assay [1] was greater than 501 µM; in assay [2], 465 µM.
Taken in the same sequence, the figures for `Cc1nnc(SCc2ccc(Cl)s2)n1CC(N)=O` were greater than 501 µM and greater than 501 µM.
Taken in the same sequence, the figures for `CN(Cc1nnc(C2CC2)o1)Cc1ccccc1-c1ccccc1` were greater than 50.1 µM and 24.7 µM.
Regarding `NS(=O)(=O)NCCCc1ccc(Br)cc1F`, the IC50 in assay [1] was 218 µM; in assay [2] it was 151 µM.
Take `CNCc1nc2c(s1)CCCC2`: the IC50 in assay [1] was 259 µM; in assay [2] it was 221 µM.
For the molecule `O=C(Cn1cc(Br)cn1)Nc1ccc2c(c1)OCCO2`, the IC50 in assay [1] is 247 µM; in assay [2] it was 220 µM.
Taken in the same sequence, the figures for `O=C(NCc1cccnc1)C1COc2ccccc2O1` (centres undefined) were greater than 501 µM and greater than 501 µM.
Taken in the same sequence, the figures for `COc1ccc(N2CCCNCC2)cc1` were 276 µM and 308 µM.
For `CCc1ccccc1OCCN(C)C(=O)CN1CCCC1`, the values for the IC50 in assay [1] and in assay [2] were greater than 50.1 µM and 39.2 µM, respectively.
Take `CCCS(=O)(=O)NCCOc1ccc(C#N)cc1`: the IC50 in assay [1] is 291 µM; in assay [2], 220 µM.
As to `O=C1[C@H]2CN(C3CCOC3)C[C@H]2CN1c1ccccc1` (some centres undefined), the IC50 in assay [1] and in assay [2] was greater than 50.1 µM throughout.
`CC(=O)c1ccccc1NC(=O)CN1CC[C@H](N)C1`: the IC50 is greater than 501 µM in assay [1] and 158 µM in assay [2].
Take `O=C1CC2(CCN(Cc3cccs3)C2)CN1c1cccc(F)c1` (centres undefined): the IC50 is 18.6 µM in assay [1] and 1.43 µM in assay [2].
As to `COC(=O)C(O)CNc1ccc(C(F)(F)F)cn1` (centres undefined), the IC50 in assay [1] and in assay [2] was greater than 501 µM in each case.
`CNC(=O)c1ccc(Cl)c(S(=O)(=O)N2CCCCC2)c1`: the IC50 in assay [1] and in assay [2] was greater than 501 µM throughout.
As for `COc1ccnc(NC(=O)NCc2cccs2)c1`, the IC50 in assay [1] is 119 µM; in assay [2], 90.3 µM.
Taken in the same sequence, the figures for `CCC[C@H]1CN(S(=O)(=O)c2ccnn2CCC)C[C@@H]1N` were greater than 501 µM and 283 µM.
Turning to `CC(C)CN1C(=O)C(N)c2ccccc21` (centres undefined), the IC50 in assay [1] and in assay [2] was greater than 501 µM in each case.
Turning to `CC1=CCN(C(=O)c2ccsc2)CC1`, the IC50 in assay [1] is greater than 501 µM; in assay [2], 160 µM.
For `O=c1ccc(Br)cn1Cc1noc(C2CC2)n1`, the IC50 in assay [1] is 204 µM; in assay [2] it was 78.4 µM.
Taken in the same sequence, the figures for `Cc1ccccc1N1C(=O)C=CC1=O` were 254 µM and 157 µM.
For the molecule `CCNC1=NN=C(c2ccc(OC)c(F)c2)CS1`, the IC50 in assay [1] was 134 µM; in assay [2] it was 137 µM.
Taken in the same sequence, the figures for `CC1CCC(NC(=O)Cn2cnc(C#N)n2)CC1` (centres undefined) were 98.1 µM and 101 µM.
As to `CN(CCS(=O)(=O)c1cc(Cl)ccc1Cl)CC(N)=O`, the IC50 in assay [1] is greater than 50.1 µM; in assay [2], 24.7 µM.
Turning to `O=C(c1ccc(Cn2cnnn2)cc1)N1CCC(c2ccncc2)CC1`, the IC50 in assay [1] and in assay [2] was greater than 50.1 µM in each case.
As to `CC(C)CNC(=O)c1cc2c(s1)CCN2Cc1cccnc1`, the IC50 in assay [1] and in assay [2] was greater than 50.1 µM throughout.
`N#CC1(C(=O)NCCCNc2ccc(C(F)(F)F)cn2)CCCC1`: the IC50 in assay [1] was 1.69 µM; in assay [2] it was 0.198 µM.
As for `N#Cc1ccc(NCc2cccc(COC3CCOCC3)c2)nc1`, the IC50 in assay [1] and in assay [2] was greater than 50.1 µM each time.
On to `COCc1nn(Cc2ccccc2Cl)c(=O)o1`, for which the figures for the IC50 in assay [1] and in assay [2] were 393 µM and 35.9 µM, respectively.
In the case of `CCC[C@@H]1CN(Cc2ccc3c(c2)OCCO3)C[C@H]1C(=O)O`, the IC50 in assay [1] and in assay [2] was greater than 50.1 µM each time.
For `CC(C)c1nnc2n1CCN(C(=O)c1ccc(-n3cnnc3)cc1)C2`, the IC50 in assay [1] and in assay [2] was greater than 50.1 µM in each case.
On to `CC(C)c1nnc(CNc2ccc(SC(F)(F)F)cc2)o1`, for which the IC50 is 18.9 µM in assay [1] and 19.3 µM in assay [2].
Taken in the same sequence, the figures for `c1cnc(N2CC[C@@H](OCC3CC3)[C@@H]2Cc2cccnc2)nc1` were greater than 50.1 µM and greater than 50.1 µM.
Consider `O=C(c1ccc(F)cc1)N1C[C@H]2CCC[C@@]2(COCc2ccncc2)C1`, for which the IC50 in assay [1] and in assay [2] was greater than 50.1 µM in each case.
`N#Cc1ccc(NCCOc2ccccc2)nc1`: the IC50 in assay [1] was 48.4 µM; in assay [2], 95.3 µM.
On to `CC(NC(=O)CCNC(=O)c1ccco1)c1cccs1` (centres undefined), for which the IC50 in assay [1] and in assay [2] was greater than 501 µM each time.
As for `CC(=O)c1ccc(S(C)(=O)=O)c(N2CCC(C)(C)C2)c1`, the IC50 in assay [1] and in assay [2] was greater than 501 µM in each case.
As for `CC(C)Cn1ccnc1CNc1ncccc1F`, the IC50 was 382 µM in assay [1] and 307 µM in assay [2].
Consider `O=C1NC2(CCCN(C(=O)CCn3cccn3)C2)Oc2ccccc21` (centres undefined), for which the results for the IC50 in assay [1] and in assay [2] were greater than 50.1 µM and 39.4 µM, respectively.
For `COc1c(F)cc(CN2CC[C@@H](N)[C@H](O)C2)cc1Cl`, the IC50 in assay [1] was greater than 501 µM; in assay [2], 279 µM.
`O[C@@H]1CNC[C@H]1n1ccnn1`: the IC50 in assay [1] was 289 µM; in assay [2] it was 286 µM.
Regarding `Cc1ccc(C(=O)NCC(=O)NC(C)(C)C)c(O)c1`, the IC50 in assay [1] and in assay [2] was greater than 501 µM each time.
With `NCC(=O)N1CCCC(CCc2ccc(F)cc2)C1` (centres undefined), the results for the IC50 in assay [1] and in assay [2] were 310 µM and 333 µM, respectively.
`CCc1ccccc1OC1CN(C(=O)c2cccs2)C1`: the IC50 is 14.2 µM in assay [1] and 5.46 µM in assay [2].
Turning to `CC(C)N(CCNC(=O)c1[nH]nc2ccc(I)cc12)C(C)C`, the IC50 was 15.8 µM in assay [1] and 17.9 µM in assay [2].
As to `Cc1n[nH]c(C)c1CCNC(=O)C1CCCN(Cc2ccco2)C1` (centres undefined), the IC50 in assay [1] and in assay [2] was greater than 50.1 µM each time.
On to `CCCn1nnc(NCc2ccc(OC)cc2)n1`, for which the IC50 is 25.1 µM in assay [1] and 115 µM in assay [2].
On to `OCCC1CCN(Cc2ccccc2)C1` (centres undefined), for which the IC50 in assay [1] and in assay [2] was greater than 501 µM throughout.
As to `c1ccc(CNc2cc(-n3cccn3)ncn2)cc1`, the IC50 in assay [1] is greater than 501 µM; in assay [2] it was 11.2 µM.
Taken in the same sequence, the figures for `CC(C)c1nnc(CN2CC(n3cccn3)Cc3ccccc32)o1` (centres undefined) were greater than 50.1 µM and greater than 50.1 µM.
Take `CCn1cncc1CNc1ccc(-c2nc(CC(C)C)no2)cn1`: the figures for the IC50 in assay [1] and in assay [2] were 5.92 µM and greater than 50.1 µM, respectively.
On to `C=C(C)COc1ccc(C(=O)NCC[C@@H](C)CO)cc1`, for which the results for the IC50 in assay [1] and in assay [2] were 283 µM and 440 µM, respectively.
In the case of `CC(C)N1CC2(CCCN(Cc3noc(C4CCCC4)n3)C2)CCC1=O` (centres undefined), the IC50 in assay [1] and in assay [2] was greater than 50.1 µM throughout.
For `Cc1csc(CNC(=O)c2ccco2)n1`, the IC50 in assay [1] and in assay [2] was greater than 501 µM throughout.
Regarding `O=C(Nc1ccc(F)c(Cl)c1)N1CCC(O)C1` (centres undefined), the IC50 is 314 µM in assay [1] and 212 µM in assay [2].
On to `Cc1cnn(C2CCCN(C(=O)c3ccnc(N(C)C)c3)C2)c1` (centres undefined), for which the IC50 in assay [1] and in assay [2] was greater than 50.1 µM each time.
In the case of `CC(C)c1cc(C(=O)NCCCN(C)C)nc(N2CCCC2)n1`, the IC50 is 31.2 µM in assay [1] and 30 µM in assay [2].
Take `O=C(CNC1CC1)NC[C@H]1CCc2ccccc2O1`: the figures for the IC50 in assay [1] and in assay [2] were 156 µM and 130 µM, respectively.
